From ChEMBL document CHEMBL6096683, “Novel Orthosteric/Allosteric Ligands of Cannabinoid Receptors: An Unexpected Pharmacological Profile” (J Med Chem, 2025) come the findings set out here.

Assay [1] has as its target T1, Cannabinoid receptor 1 (Homo sapiens, UniProt P21554). Description: Displacement of [3H]CP55940 from human CB1 receptor expressed in CHO cell membrane incubated for 2 hrs. The class given is cell membranes.
Assay [2] addresses T1, Cannabinoid receptor 1. Description: Displacement of [3H]CP55940 from human CB1 receptor expressed in CHO cell membrane at 0.001 to 10 uM incubated for 2 hrs relative to control. The class given is cell membranes. To be noted: dose 0.001-10 µM.
The target in assay [3] is T2, Cannabinoid receptor 2 (Homo sapiens, UniProt P34972). The experiment in a line: Displacement of [3H]CP55940 from human CB2 receptor expressed in CHO cell membrane incubated for 2 hrs. The class given is cell membranes. For orientation: In a radioligand displacement assay an active substance lowers the binding of a labelled ligand.
T2 sequence (P34972 whole entry): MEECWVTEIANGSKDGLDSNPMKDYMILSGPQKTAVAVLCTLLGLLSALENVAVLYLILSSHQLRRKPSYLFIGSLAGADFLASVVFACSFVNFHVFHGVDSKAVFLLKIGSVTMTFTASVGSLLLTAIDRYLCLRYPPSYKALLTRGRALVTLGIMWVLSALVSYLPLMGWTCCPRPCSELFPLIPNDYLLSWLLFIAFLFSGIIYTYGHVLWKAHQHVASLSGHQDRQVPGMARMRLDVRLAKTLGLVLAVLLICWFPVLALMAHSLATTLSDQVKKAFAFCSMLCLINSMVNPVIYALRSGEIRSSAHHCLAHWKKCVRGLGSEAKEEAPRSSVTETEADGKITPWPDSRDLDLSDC
The target of assay [4] is T2, Cannabinoid receptor 2. The experiment in a line: Displacement of [3H]CP55940 from human CB2 receptor expressed in CHO cell membrane at 0.001 to 10 uM incubated for 2 hrs relative to control. The class given is cell membranes. As to conditions: dose 0.001-10 µM.
Assay [5] has as its target T2, Cannabinoid receptor 2. Description: Agonist activity at human CB2 receptor expressed in CHO cells assessed as inhibition of forskolin-induced cAMP production at 10 uM incubated for 90 mins by HitHunter assay. The class given is functional, cell-based. To be noted: filed as agonist. (In general: cAMP levels reflect the balance of adenylyl cyclase and phosphodiesterase activity.)

The target in assay [6] is T1, Cannabinoid receptor 1. The experiment in a line: Agonist activity at human CB1 receptor expressed in CHO cells assessed as inhibition of forskolin-induced cAMP production at 100 nM incubated for 90 mins in presence of CP55940 ligand by HitHunter assay relative to control. The class given is functional, cell-based. To be noted: filed as agonist.
Assay [7] concerns the target T1, Cannabinoid receptor 1. The experiment in a line: Agonist activity at human CB1 receptor expressed in CHO cells assessed as inhibition of forskolin-induced cAMP production incubated for 90 mins in presence of CP55940 ligand by HitHunter assay. The class given is functional, cell-based.
Assay [8] addresses T1, Cannabinoid receptor 1. Description: Agonist activity at human CB1 receptor expressed in CHO cells assessed as inhibition of forskolin-induced cAMP production incubated for 90 mins in presence of FM6b ligand by HitHunter assay. The format is functional, cell-based.
Assay [9] addresses T1, Cannabinoid receptor 1. The experiment in a line: Agonist activity at human CB1 receptor expressed in CHO cells assessed as inhibition of forskolin-induced cAMP production at 100 nM incubated for 90 mins in presence of FM6b ligand by HitHunter assay relative to control. The format is functional, cell-based. As to conditions: filed as agonist.
The target in assay [10] is T1, Cannabinoid receptor 1. The experiment in a line: Agonist activity at human CB1 receptor expressed in CHO cells assessed as inhibition of forskolin-induced cAMP production incubated for 90 mins in presence of GAT211 ligand by HitHunter assay. The class given is functional, cell-based.
The target of assay [11] is T1, Cannabinoid receptor 1. Description: Agonist activity at human CB1 receptor expressed in CHO cells assessed as inhibition of forskolin-induced cAMP production at 100 nM incubated for 90 mins in presence of GAT211 ligand by HitHunter assay relative to control. The class given is functional, cell-based.
Assay [12] has as its target T2, Cannabinoid receptor 2. Description: Agonist activity at human CB2 receptor expressed in CHO cells assessed as inhibition of forskolin-induced cAMP production incubated for 90 mins in presence of CP55940 ligand by HitHunter assay. The class given is functional, cell-based.
Assay [13] concerns the target T2, Cannabinoid receptor 2. Description: Agonist activity at human CB2 receptor expressed in CHO cells assessed as inhibition of forskolin-induced cAMP production at 100 nM incubated for 90 mins in presence of CP55940 ligand by HitHunter assay relative to control. The class given is functional, cell-based. To be noted: filed as agonist.
The target of assay [14] is T2, Cannabinoid receptor 2. The experiment in a line: Agonist activity at human CB2 receptor expressed in CHO cells assessed as inhibition of forskolin-induced cAMP production at 100 nM incubated for 90 mins in presence of FM6b ligand by HitHunter assay relative to control. The format is functional, cell-based. As to conditions: filed as agonist.
Assay [15] concerns the target T2, Cannabinoid receptor 2. Description: Agonist activity at human CB2 receptor expressed in CHO cells assessed as inhibition of forskolin-induced cAMP production incubated for 90 mins in presence of FM6b ligand by HitHunter assay. The format is functional, cell-based.
For assay [16], the system named is HepG2. The experiment in a line: Induction of lipid accumulation in human HepG2 cells at 1 uM incubated for 24 hrs by Oil Red O staining based analysis. The class given is functional, cell-based.
For assay [17], the target named is T1, Cannabinoid receptor 1. The experiment in a line: Displacement of [3H]CP55940 from human CB1 receptor. To be noted: filed as agonist.
Assay [18] addresses T2, Cannabinoid receptor 2. The experiment in a line: Displacement of [3H]CP55940 from human CB2 receptor. As to conditions: filed as agonist.
For assay [19], the target named is T2, Cannabinoid receptor 2. The experiment in a line: Agonist activity at human CB2 receptor expressed in CHO cells assessed as inhibition of forskolin-induced cAMP production at 1.8 nM incubated for 90 mins by HitHunter assay relative to control. As to conditions: filed as agonist. The format is functional, cell-based. The arrangement: scale not given: the % may be the effect or the level left.

The test system of assay [20] is HepG2. The experiment in a line: Anti-steatosis activity against oleate/palmitate-induced human HepG2 cells assessed as induction of lipolysis at 25 uM incubated for 24 hrs. The format is functional, cell-based.

The structures appear in SMILES notation. The source made the active and inactive calls. The rule behind the calls is not given here. A value given as a limit tells only on which side of the number the result lay.

T1 sequence (P21554 whole entry): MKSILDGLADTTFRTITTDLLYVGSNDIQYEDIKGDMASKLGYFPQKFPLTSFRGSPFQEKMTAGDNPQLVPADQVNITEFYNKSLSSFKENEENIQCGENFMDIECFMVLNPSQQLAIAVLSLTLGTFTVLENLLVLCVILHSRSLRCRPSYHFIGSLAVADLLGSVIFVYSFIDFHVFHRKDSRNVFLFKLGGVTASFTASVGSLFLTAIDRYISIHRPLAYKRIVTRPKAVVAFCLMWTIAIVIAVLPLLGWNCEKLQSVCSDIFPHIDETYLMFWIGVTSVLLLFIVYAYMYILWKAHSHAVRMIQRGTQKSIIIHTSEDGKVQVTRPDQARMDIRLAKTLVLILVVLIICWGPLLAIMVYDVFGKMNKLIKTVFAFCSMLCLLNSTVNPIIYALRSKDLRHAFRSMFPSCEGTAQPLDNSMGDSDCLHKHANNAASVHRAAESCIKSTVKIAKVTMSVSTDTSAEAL

The term Emax denotes the size of the effect at its maximum, as opposed to the concentration needed. For orientation: EC50 means the concentration at which the effect is half-maximal. For `Cc1c(Br)cc(C(=O)NC2CCCCCC2)c(=O)n1CCCCCn1cc(CCCC(=O)NCC(c2ccccc2)c2c(-c3ccccc3)[nH]c3ccccc23)nn1` (stereo not given), the IC50 on Cannabinoid receptor 1 [1] was 0.0158 µM; on Cannabinoid receptor 2 [3] (read-out: pIC50 (converted)) it was more than 10 µM. The Emax at Cannabinoid receptor 1 [2] stood at 0.12%; on Cannabinoid receptor 2 [4] (filed as agonist) it was 44%; at Cannabinoid receptor 1 [6], 122%; at Cannabinoid receptor 1 [9], 130%; on Cannabinoid receptor 1 [11], 24%. The result on Cannabinoid receptor 2 [5] was Active. The concentration for a half-maximal effect (EC50) at Cannabinoid receptor 1 [7] is 0.251 µM; at Cannabinoid receptor 1 [8], 1.58 µM; at Cannabinoid receptor 1 [10], 0.00501 µM.
Take `Cc1c(Br)cc(C(=O)NC2CCCCCC2)c(=O)n1CCCn1cc(CCC(=O)NCC(c2ccccc2)c2c(-c3ccccc3)[nH]c3ccccc23)nn1` (stereo not given): the figures for the IC50 on Cannabinoid receptor 1 [1] and on Cannabinoid receptor 2 [3] (read-out: IC50) were 0.0316 µM and 0.0063 µM, respectively. For the same compound, the maximal effect (Emax) on Cannabinoid receptor 1 [2] (filed as agonist) stood at 329%; at Cannabinoid receptor 2 [4] (filed as agonist), 130%; on Cannabinoid receptor 2 [13], 123%; on Cannabinoid receptor 1 [6], 61%; at Cannabinoid receptor 2 [14], 77%; on Cannabinoid receptor 1 [9], 150%. Besides, at Cannabinoid receptor 1 [11], the maximal response (Emax) was found to be 26%. For the same compound, the outcome on Cannabinoid receptor 2 [5] was Active. Further, the EC50 at Cannabinoid receptor 2 [12] was 0.01 µM; on Cannabinoid receptor 1 [7], 0.00794 µM; at Cannabinoid receptor 2 [15], 0.316 µM; on Cannabinoid receptor 1 [8] it was 2.51 µM; at Cannabinoid receptor 1 [10] it was 0.002 µM.
As for `Cc1c(C(=O)NN2CCCCC2)nn(-c2ccc(Cl)cc2Cl)c1-c1ccc(Cl)cc1`, in the assay with HepG2 [16], the outcome was Active.
Regarding `Cc1c(Br)cc(C(=O)NC2CCCCCC2)c(=O)n1CCCn1cc(CCCC(=O)NCC(c2ccccc2)c2c(-c3ccccc3)[nH]c3ccccc23)nn1` (stereo not given), the IC50 is 0.0251 µM at Cannabinoid receptor 1 [1] and 0.1 µM on Cannabinoid receptor 2 [3] (read-out: IC50). In addition, the Emax on Cannabinoid receptor 1 [2] worked out at 31%; on Cannabinoid receptor 2 [4] (filed as agonist) it was 160%; at Cannabinoid receptor 2 [13], 104%; on Cannabinoid receptor 1 [6], 79%; at Cannabinoid receptor 2 [14], 73%; on Cannabinoid receptor 1 [9] it was 120%. Also, the Emax on Cannabinoid receptor 1 [11] was 0.335%. In addition, on Cannabinoid receptor 2 [5], the outcome was Active. Moreover, the EC50 at Cannabinoid receptor 2 [12] was 0.00794 µM; at Cannabinoid receptor 1 [7], 0.0251 µM; at Cannabinoid receptor 2 [15] it was 0.398 µM; on Cannabinoid receptor 1 [8] it was 0.631 µM; at Cannabinoid receptor 1 [10], 0.0158 µM.
For the compound `Cc1c(Br)cc(C(=O)NC2CCCCCC2)c(=O)n1Cc1ccc(F)cc1`, the result on Cannabinoid receptor 1 [17] and on Cannabinoid receptor 2 [18] was Active. Besides, the IC50 is 0.000794 µM at Cannabinoid receptor 1 [1] and 0.00631 µM at Cannabinoid receptor 2 [3] (read-out: pIC50 (converted)). Further, the maximum response (Emax) was 29% on Cannabinoid receptor 1 [2] and 13% on Cannabinoid receptor 2 [4]. Further, the Activity on Cannabinoid receptor 2 [19] amounted to 104%. Further, the outcome in the assay on HepG2 [20] was inactive.
